Reference: patent US20100190795A1, “BETULIN DERIVED COMPOUNDS USEFUL AS ANTIPROTOZOAL AGENTS” (Valtion Teknillinen tutkimuskeskus, priority 2006, published 2010)

Tested on: Leishmania
Test: Alamar Blue determination of activity against Leishmania (single concentration and GI50)
Assay type: cell-based, Leishmania donovani, L. tropica
Conditions: for activity against leishmaniasis: statement in words in the description; for inhibition at 50 µM: Leishmania, compound concentration 50 µM; for GI50: concentrations between 50 and 0.01 μM
Protocol: Leishmania donovani MHOM/SD/1962/1S-012D and L. tropica MHOM/IS/1990/LRC-L590 protozoa were used in the tests.
Promastigotes were grown in a broth containing Medium-199 (Sigma, St. Louis, Mo.) supplemented with 2 mM L-glutamine, 100 μM adenosine, 23 μM folio acid, antibiotics (100 IU penicillin G and 100 μg/ml streptomycin), 1×BME vitamin mixture, 25 mM 2-(N-morpholin)ethanesulfonic acid (MES), 4.2 mM NaHCO3 and heat treated fetal calf serum (FCS, 10% v/v), pH being adjusted to 6.8, Promastigotes were grown at 26° C.
Axenic amastigotes of L. donovani were grown according to the procedure presented by Debrabant et al., 2004, in the RPMI 1640 broth containing 20% v/v of fetal calf serum (FCS), at 37° C., pH 5.5, Axenic amastigotes of L. tropica were grown as described for L. donovani with the exception that only 10% v/v FCS was used, at 36° C. without CO2.
Each dilution with the desired concentration of the parasite was dispensed as three parallel samples (250 μl/well) to a 96 well microtiter plate having a flat bottom (NUNC, Denmark), followed by the addition of Alamar Blue reagent (25 μl/well, ENCO). The plates were read (λcm=544 nm; λex2=590 nm) after following incubation times (3, 9, 24, 48 and 72 h) using a fluorescence microtiter plate reader (Fluoroskan, Ascent Fla., Finland).
Activity of the compounds was tested both for L. donovani and L. tropica species. Promastigotes (2×10^6 cells/ml) or axenic amastigotes (5.0×10^5 cells/ml) were introduced as three parallel samples (125 μl/well) to 96 well microtiter plates having flat bottoms, the wells containing each compound diluted in the cultivation broth (125 with final concentration of DMSO of 1%), Initially, the concentration of the compounds was […]. Amphotericin B (1 μM) was included as positive control (Sigma, St. Louis, Mo.), Broth containing DMSO was used as negative control. The parasites were tested either with or without the compounds by incubating at 26° C. (promastigotes), at 36° C. (axenic amastogotes of L. tropica) or at 37° C. (axenic amastogotes of L. donovani). After 24 hours, the Alamar Blye reagent (25 μl/well) was added, the plates were still incubater for 24 hours, followed by fluorescence determination. GI50 assay was carried out using the same procedure, the concentrations of the compounds to be tested ranging, however, between 50 and 0.01 μM.
Testing of the compounds was carried out as described in example 32.

[1] = Table 4, 24 h, then Alamar Blue 24 h, fluorescence, species and stage not given
[2] = Table 5, tested as in example 32, species and stage not stated

Row | Compound | Inhibition of Leishmania (%) [1] [%] | Inhibition of Leishmania (%) [2] [%] | further results
1 | 28-carboxymethoxy mentholester of betulin [betulin 28-carboxymethoxy mentholester] | 16.6 |  | 
2 | C=C(C)[C@@H]1CC[C@]2(CO)CC[C@]3(C)[C@H](CC[C@@H]4[C@@]5(C)CC=CC(C)(C)[C@@H]5CC[C@]43C)[C@@H]12 [2,3-didehydro-3-deoxybetulin, reference compound] | 13.2 |  | 
3 | CC(C)[C@@H]1CC[C@]2(C(=O)O)CC[C@]3(C)[C@H](CC[C@@H]4[C@@]5(C)CCC(=O)C(C)(C)[C@@H]5CC[C@]43C)[C@@H]12 [20,29-hydrobetulonic acid, 20,29-dihydrobetulonic acid] | 73.4 |  | 
4 | C=C(C)[C@@H]1CC[C@]2(COC(=O)c3ccccc3NC(C)=O)CC[C@]3(C)C(CCC4[C@@]5(C)CC[C@H](O)C(C)(C)C5CC[C@]43C)C12 (stereo partly shown) [28-N-acetylanthranilic acid ester of betulin] | 59.2 |  | activity against leishmaniasis: considerable activity
5 | C=C(C)C1CCC2(COC(C)=O)CCC3(C)C(CCC4C5(C)CCC(=O)C(C)(C)C5CCC43C)C12 (stereo not shown) [28-acetate of betulonic alcohol] | 40.6 |  | 
6 | C=C(C)C1CCC2(C(=O)NC(CC(=O)OC)C(=O)OC)CCC3(C)C(CCC4C5(C)CCC(=O)C(C)(C)C5CCC43C)C12 (stereo not shown) [28-aspartateamide dimethyl ester of betulonic acid] | 69.3 |  | activity against leishmaniasis: considerable activity
7 | C=C(C)C1CCC2(C(=O)OC)CCC3(C)C(CCC4C5(C)CCC(=O)C(C)(C)C5CCC43C)C12 (stereo not shown) [28-methylester of betulonic acid] | 40.1 |  | 
8 | C[C@@H]1[C@H](O)[C@@H](C)/C=C/C=C/C=C/C=C/C=C/C=C/C=C/[C@H](O[C@@H]2O[C@H](C)[C@@H](O)[C@H](N)[C@@H]2O)C[C@@H]2O[C@](O)(C[C@@H](O)C[C@@H](O)[C@H](O)CC[C@@H](O)C[C@@H](O)CC(=O)O[C@H]1C)C[C@H](O)[C@H]2C(=O)O [amphotericine B, Amphotericin B, reference compound] |  |  | Inhibition of Leishmania (%) (Table 4, positive control at 1 μM): 55.4%; Inhibition of Leishmania (%) (Table 5, positive control at 1 μM): 55.4%
9 | C=C(C)[C@@H]1CC[C@]2(/C=N/O)CC[C@]3(C)[C@H](CC[C@@H]4[C@@]5(C)CC/C(=N\O)C(C)(C)[C@@H]5CC[C@]43C)[C@@H]12 [betulin 3,28-dioxime] | 72.4 |  | 
10 | C=C(C)C1CCC2(C#N)CCC3(C)C(CCC4C5(C)CCC(=NOC(C)=O)C(C)(C)C5CCC43C)C12 (stereo not shown) [betulin 3-acetoxyoxime-28-nitrile] | 66.4 |  | activity against leishmaniasis: considerable activity
11 | C=C(C)[C@@H]1CC[C@]2(COC(=O)C3C(C=C(C)C)C3(C)C)CC[C@]3(C)[C@H](CC[C@@H]4[C@@]5(C)CC[C@H](O)C(C)(C)[C@@H]5CC[C@]43C)[C@@H]12 (stereo partly shown) [betulin 28-chrysanthemate, 28-chrysanthemate of betulin] | 13.4 |  | 
12 | C=C(C)[C@@H]1CC[C@]2(/C=N/O)CC[C@]3(C)[C@H](CC[C@@H]4[C@@]5(C)CC[C@H](O)C(C)(C)[C@@H]5CC[C@]43C)[C@@H]12 [betulin 28-oxime] | 66.8 |  | 
13 | C=C(C)[C@@H]1CC[C@]2(CO)CC[C@]3(C)[C@H](CC[C@@H]4[C@@]5(C)CC[C@H](O)C(C)(C)[C@@H]5CC[C@]43C)[C@@H]12 [betulin, lup-20(29)-ene-3β,28-diol] |  |  | inhibition at 50 µM [1]: 35%
14 | C=C(C)[C@@H]1CC[C@]2(C(=O)O)CC[C@]3(C)[C@H](CC[C@@H]4[C@@]5(C)CC[C@H](O)C(C)(C)[C@@H]5CC[C@]43C)[C@@H]12 [betulinic acid, reference compound] |  |  | inhibition at 50 µM [1]: 39.8%
15 | C=C(C)[C@@H]1CC[C@]2(C=O)CC[C@]3(C)[C@H](CC[C@@H]4[C@@]5(C)CC[C@H](O)C(C)(C)[C@@H]5CC[C@]43C)[C@@H]12 [betulinic aldehyde, reference compound] |  |  | inhibition at 50 µM [1]: 65%
16 | C=C(C)[C@@H]1CC[C@]2(C(=O)O)CC[C@]3(C)[C@H](CC[C@@H]4[C@@]5(C)CCC(=O)C(C)(C)[C@@H]5CC[C@]43C)[C@@H]12 [betulonic acid] | 97.6 |  | activity against leishmaniasis: considerable activity
17 | C=C(C)[C@@H]1CC[C@]2(CO)CC[C@]3(C)[C@H](CC[C@@H]4[C@@]5(C)CCC(=O)C(C)(C)[C@@H]5CC[C@]43C)[C@@H]12 [betulonic alcohol] | 44.0 |  | 

Row | Compound | Inhibition of Leishmania (%) [1] [%] | Inhibition of Leishmania (%) [2] [%] | further results
18 | C=C(C)[C@@H]1CC[C@]2(C=O)CC[C@]3(C)[C@H](CC[C@@H]4[C@@]5(C)CCC(=O)C(C)(C)[C@@H]5CC[C@]43C)[C@@H]12 [betulonic aldehyde, reference compound] | 46.2 |  | 
19 | Dials-Alder adduct of 3β,28-diacetoxylupa-12,18-diene and p-chloro-4-phenylurazole |  | 27.3 | 
20 | Diels-Alder adduct of 3β,28-diacetoxylupa-12,18-diene and 1,3-dioxol-5-ylurazole |  | 52.2 | activity against leishmaniasis: considerable activity
21 | Diels-Alder adduct of 3β,28-diacetoxylupa-12,18-diene and 1-naphthylurazole |  | 57.7 | activity against leishmaniasis: considerable activity
22 | Diels-Alder adduct of 3β,28-diacetoxylupa-12,18-diene and 4-benzoylurazole |  | 24.7 | 
23 | Diels-Alder adduct of 3β,28-diacetoxylupa-12,18-diene and 4-methylurazole |  | 98.2 | GI50 (Table 5): 8.9 µM; activity against leishmaniasis: considerable activity
24 | Diels-Alder adduct of 3β,28-diacetoxylupa-12,18-diene and 4-phenylurazole |  | 36.2 | 
25 | Diels-Alder adduct of 3β,28-diacetoxylupa-12,18-diene and indan-5-yl urazole |  | 22.5 | 
26 | Diels-Alder adduct of 3β,28-diacetoxylupa-12,18-diene and m-chloro-4-phenylurazole |  | 29.7 | 
27 | Diels-Alder adduct of 3β,28-diacetoxylupa-12,18-diene and m-methoxy-4-phenylurazole |  | 43.5 | 
28 | Diels-Alder adduct of 3β,28-diacetoxylupa-12,18-diene and m-nitroxy-4-phenylurazole |  | 29.5 | 
29 | Diels-Alder adduct of 3β,28-diacetoxylupa-12,18-diene and p-acetoxy-4-phenylurazole |  | 44.7 | 
30 | Diels-Alder adduct of 3β,28-diacetoxylupa-12,18-diene and p-fluoro-4-phenylurazole |  | 47.8 | 
31 | Diels-Alder adduct of 3β,28-diacetoxylupa-12,18-diene and urazole |  | 87.6 | GI50 (Table 5): 25.5 µM; activity against leishmaniasis: considerable activity
32 | Diels-Alder adduct of lupa-12,18-diene and 4-methylurazole |  | 50.0 | 
33 | Diels-Alder adduct of lupa-12,18-diene and 4-phenylurazole |  | 47.5 | 
34 | betulin 28-acetic acid methyl ester [betulin 28-acetic acid methylester] |  |  | Inhibition of Leishmania (%) (Table 4, compound concentration, 24 h, then Alamar Blue 24 h, fluorescence, species and stage not given): 95.3%; activity against leishmaniasis: considerable activity
